Measurements published in ChEMBL document CHEMBL3217425, “Structure-based design, synthesis, and profiling of a -tryptase inhibitor with a spiro-piperidineamide scaffold, benzylamine P1 group, and a substituted indole P4 group” (Medchemcomm, 2011).

Key:
[1] = molecular target: T1, SSAO (amine oxidase [copper-containing] 3) (Homo sapiens, UniProt Q16853); experiment: Stability of the compound assessed as human full length SSAO-mediated drug metabolism expressed in CHO cells measured as compound remaining after 20 mins; assay type: ADME, cell-based; settings: CHO cells expressing human full length SSAO, read-out: Stability
T1 sequence (Q16853 whole entry): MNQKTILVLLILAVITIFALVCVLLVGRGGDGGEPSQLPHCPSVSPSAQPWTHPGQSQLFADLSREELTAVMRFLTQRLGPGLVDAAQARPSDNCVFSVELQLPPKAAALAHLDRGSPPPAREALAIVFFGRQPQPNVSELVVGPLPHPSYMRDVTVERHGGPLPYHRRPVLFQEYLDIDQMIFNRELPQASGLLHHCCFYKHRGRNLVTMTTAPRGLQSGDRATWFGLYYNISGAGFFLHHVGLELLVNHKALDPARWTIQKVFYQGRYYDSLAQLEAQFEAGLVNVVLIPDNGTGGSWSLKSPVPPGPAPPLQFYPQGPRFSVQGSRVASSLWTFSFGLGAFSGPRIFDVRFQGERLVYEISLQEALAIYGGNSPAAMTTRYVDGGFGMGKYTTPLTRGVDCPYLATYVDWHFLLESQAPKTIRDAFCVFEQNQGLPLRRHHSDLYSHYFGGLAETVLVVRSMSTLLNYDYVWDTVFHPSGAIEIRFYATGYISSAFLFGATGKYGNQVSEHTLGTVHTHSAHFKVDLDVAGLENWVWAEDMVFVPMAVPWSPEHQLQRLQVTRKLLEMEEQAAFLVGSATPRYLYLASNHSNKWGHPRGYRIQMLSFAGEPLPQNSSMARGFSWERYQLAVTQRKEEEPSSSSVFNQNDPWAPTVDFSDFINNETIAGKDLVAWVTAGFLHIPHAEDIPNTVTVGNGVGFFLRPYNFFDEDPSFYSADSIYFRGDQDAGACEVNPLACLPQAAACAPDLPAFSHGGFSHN

hERG (KCNH2) [2] = molecular target: T2, hERG (KCNH2) (Homo sapiens, UniProt Q12809); experiment: Inhibition of human ERG channel expressed in CHO cells at 10 uM; assay type: cell-based; settings: CHO cells expressing human ERG channel
T2 sequence (Q12809 whole entry): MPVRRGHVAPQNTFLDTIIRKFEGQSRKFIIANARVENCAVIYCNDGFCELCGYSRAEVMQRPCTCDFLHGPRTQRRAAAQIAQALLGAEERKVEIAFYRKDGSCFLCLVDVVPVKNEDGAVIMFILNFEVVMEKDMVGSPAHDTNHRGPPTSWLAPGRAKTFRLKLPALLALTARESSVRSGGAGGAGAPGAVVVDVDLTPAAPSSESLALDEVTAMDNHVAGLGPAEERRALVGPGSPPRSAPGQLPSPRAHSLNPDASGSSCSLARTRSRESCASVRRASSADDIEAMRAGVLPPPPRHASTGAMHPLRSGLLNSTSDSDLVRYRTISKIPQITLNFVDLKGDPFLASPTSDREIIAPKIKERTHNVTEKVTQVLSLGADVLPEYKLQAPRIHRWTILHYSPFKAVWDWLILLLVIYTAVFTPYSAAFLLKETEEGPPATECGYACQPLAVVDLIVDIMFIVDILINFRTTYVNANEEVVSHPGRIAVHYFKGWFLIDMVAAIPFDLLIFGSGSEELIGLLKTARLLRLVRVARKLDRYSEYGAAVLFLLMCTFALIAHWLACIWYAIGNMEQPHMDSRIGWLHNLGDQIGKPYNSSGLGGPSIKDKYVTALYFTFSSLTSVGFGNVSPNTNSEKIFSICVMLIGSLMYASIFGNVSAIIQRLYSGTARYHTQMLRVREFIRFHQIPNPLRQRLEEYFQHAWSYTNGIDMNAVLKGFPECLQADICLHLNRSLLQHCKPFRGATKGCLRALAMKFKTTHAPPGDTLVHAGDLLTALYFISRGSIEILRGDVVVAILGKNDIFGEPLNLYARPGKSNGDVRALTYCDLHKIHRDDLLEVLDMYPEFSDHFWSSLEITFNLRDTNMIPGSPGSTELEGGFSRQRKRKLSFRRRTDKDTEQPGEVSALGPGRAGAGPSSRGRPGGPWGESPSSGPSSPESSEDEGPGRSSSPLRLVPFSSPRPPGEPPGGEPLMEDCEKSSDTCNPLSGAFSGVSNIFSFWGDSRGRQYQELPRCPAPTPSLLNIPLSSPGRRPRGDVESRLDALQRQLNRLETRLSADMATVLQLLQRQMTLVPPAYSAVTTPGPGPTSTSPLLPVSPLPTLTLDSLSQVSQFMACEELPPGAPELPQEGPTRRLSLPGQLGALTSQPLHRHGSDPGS

[3] = Drug metabolism in human liver microsomes after 20 mins; assay type: ADME; settings: read-out: Drug metabolism
hERG (KCNH2) [4] = molecular target: T2, hERG (KCNH2); experiment: Inhibition of human ERG channel expressed in CHO cells at 1 uM; assay type: cell-based; settings: CHO cells expressing human ERG channel
[5] = Drug metabolism in guinea pig liver microsomes after 20 mins; assay type: ADME, Cavia porcellus; settings: read-out: Drug metabolism
[6] = Drug metabolism in rat liver microsomes after 20 mins; assay type: ADME; settings: read-out: Drug metabolism

SMILES | remaining at 20 min [1] [%] | inhibition at 10 µM (hERG (KCNH2) [2]) [%] | metabolised at 20 min [3] [%] | inhibition at 1 µM (hERG (KCNH2) [4]) [%] | metabolised at 20 min [5] [%] | metabolised at 20 min [6] [%]
COCCn1cc(C(=O)N2CCC3(CC2)COc2ccc(CN)cc23)c2cccc(F)c21 | 89 | 16 | 17 | 11 | 12 | 10
NCc1cccc(C2CCN(C(=O)c3ccc(C#Cc4ccccc4F)o3)CC2)c1 | 8 |  |  |  |  | 
COCCn1cc(C(=O)N2CCC(c3cc(CN)ccc3F)CC2)c2cccc(F)c21 | 78 |  | 71 |  | 38 | 21
